Among the data in patent US20120184556A1, “SUBSTITUTED ENZOIMIDAZOLESULFONAMIDES AND SUBSTITUTED INDOLESULFONAMIDES AS MGLUR4 POTENTIATORS” (priority 2009, published 2012) are Emax and EC50 values, retold here.

In the test the target is T1, human mGluR4 (Homo sapiens, UniProt Q14833).
T1 construct: expressed in transfected cells; host or cells: Chinese Hamster Ovary (CHO) cells
The test can be described thus: human mGluR4 potentiation assay, CHO cells, Fluo-4 calcium fluorescence, agonist EC20. It counts as cell-based. As to conditions: for Emax: CHO, maximum extent of potentiation, human mGluR4, read-out: GluMax; for EC50: potentiation of human mGluR4 response to EC20 agonist, read-out: hEC50. As for the experimental part: The disclosed compounds and compositions can be evaluated for their ability to act as a potentiator of metabotropic glutamate receptor activity, in particular mGluR4 activity, by any suitable known methodology known in the art. For example, Chinese Hamster Ovary (CHO) cells transfected with human mGluR4 or HEK cells co-transfected with rat mGluR4 and the G-protein regulated Inwardly Rectifying Potassium channel (GIRK) were plated in clear bottom assay plates for assay in a Hamamatsu FDSS Fluorometric Plate Reader. The cells were loaded with either the Ca2+-sensitive fluorescent dye Fluo-4 or the thallium responsive dye BTC, AM and the plates were washed and placed into a suitable kinetic plate reader. For human mGluR4 assays, a fluorescence baseline was established for 3-5 seconds, the disclosed compounds were then added to the cells, and the response in cells was measured. Approximately two and a half minutes later, a concentration of mGluR4 agonist (e.g. glutamate or L-AP4) eliciting approximately 20% (EC20) of the maximal agonist response was added to the cells, and the response was measured. Two minutes later, a concentration of mGluR4 agonist (e.g. glutamate or L-AP4) eliciting 80% (EC80) of the maximal agonist response was added to the cells, and the response was measured. For rat mGluR4/GIRK experiments, a baseline was established for approximately five seconds, disclosed compounds were added, and either an EC20 or EC80 concentration of agonist was added approximately two and one half minutes later. Potentiation of the agonist response of mGluR4 by the disclosed compounds was observed as an increase in response to the EC20 concentration of agonist in the presence of compound compared to the response to agonist in the absence of compound. Similarly, antagonism of the agonist response of mGluR4 by the disclosed compounds was observed as a decrease in response to the EC80 concentration of agonist in the presence of compound compared to the response to agonist in the absence of compound.
The above described assay operated in two modes. In the first mode, a range of concentrations of the disclosed compounds are added to cells, followed by a single fixed concentration of agonist. If the compound acts as a potentiatior, an EC50 value for potentiation and a maximum extent of potentiation by the compound at this concentration of agonist is determined by non-linear curve fitting. If the compound acts as a noncompetitive antagonist, an IC50 value is determined by non-linear curve fitting. In the second mode, several fixed concentrations of the disclosed compounds are added to various wells on a plate, followed by a range in concentrations of agonist for each concentration of disclosed compound. The EC50 values for the agonist at each concentration of compound are determined by non-linear curve fitting. A decrease in the EC50 value of the agonist with increasing concentrations of the sample compound (a leftward shift of the agonist concentration-response curve) is an indication of the degree of mGluR4 potentiation at a given concentration of the sample compound. A decrease in the maximal response of the agonist with increasing concentrations of the sample compounds, with or without a rightward shift in agonist potency, is an indication of the degree of noncompetitive antagonism at mGluR4. The second mode also indicates whether the sample compounds also affect the maximum response to mGluR4 to agonists.

Counter-ions that a name gives are not always drawn.

T1 sequence (Q14833 33-912): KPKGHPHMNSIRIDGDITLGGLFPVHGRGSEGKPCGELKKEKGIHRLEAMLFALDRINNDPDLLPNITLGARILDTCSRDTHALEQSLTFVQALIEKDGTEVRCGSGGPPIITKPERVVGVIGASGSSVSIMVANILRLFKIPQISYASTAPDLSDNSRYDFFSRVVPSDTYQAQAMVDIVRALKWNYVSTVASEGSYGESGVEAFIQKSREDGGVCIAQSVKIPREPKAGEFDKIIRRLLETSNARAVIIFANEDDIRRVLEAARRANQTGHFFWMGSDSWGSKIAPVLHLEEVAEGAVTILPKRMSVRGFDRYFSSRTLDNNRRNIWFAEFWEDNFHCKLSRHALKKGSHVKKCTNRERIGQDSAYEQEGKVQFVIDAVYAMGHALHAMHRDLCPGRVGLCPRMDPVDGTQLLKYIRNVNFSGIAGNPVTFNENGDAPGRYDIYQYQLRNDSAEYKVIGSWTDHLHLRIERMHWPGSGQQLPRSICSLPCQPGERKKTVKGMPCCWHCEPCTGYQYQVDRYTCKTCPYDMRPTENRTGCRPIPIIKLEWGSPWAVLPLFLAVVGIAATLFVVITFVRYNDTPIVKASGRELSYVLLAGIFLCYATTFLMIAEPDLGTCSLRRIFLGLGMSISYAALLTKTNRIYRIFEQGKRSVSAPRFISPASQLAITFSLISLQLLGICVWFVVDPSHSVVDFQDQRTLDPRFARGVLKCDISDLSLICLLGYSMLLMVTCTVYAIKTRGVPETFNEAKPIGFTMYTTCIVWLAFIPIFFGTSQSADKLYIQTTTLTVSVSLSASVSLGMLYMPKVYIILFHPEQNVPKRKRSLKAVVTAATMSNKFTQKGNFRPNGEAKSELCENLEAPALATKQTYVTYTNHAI

`O=S(=O)(Nc1ccccc1Br)c1ccc2[nH]c(-c3ccccc3)nc2c1` [Example 1, N-(2-Bromophenyl)-2-phenyl-1H-benzo[d]imidazole-5-sulfonamide]: the Emax was 60% and the EC50 turned out to be 0.499 µM.

For `O=S(=O)(Nc1ccccc1Cl)c1ccc2[nH]c(-c3ccccc3)nc2c1` [Example 2, N-(2-Chlorophenyl)-2-phenyl-1H-benzo[d]imidazole-5-sulfonamide TFA salt], the Emax turned out to be 77% and the EC50 was 0.353 µM.

With `O=S(=O)(Nc1ccccc1Cl)c1ccc2[nH]c(-c3ccccn3)nc2c1` [Example 3, N-(2-Chlorophenyl)-2-(pyridin-2-yl)-1H-benzo[d]imidazole-5-sulfonamide], the Emax was found to be 226% and the EC50 was found to be 0.0723 µM.

For `O=S(=O)(Nc1ccccc1Cl)c1ccc2[nH]c(C3CCCCC3)nc2c1` [Example 4, N-(2-Chlorophenyl)-2-cyclohexyl-1H-benzo[d]imidazole-5-sulfonamide], the Emax came to 141% and the EC50 was 1.76 µM.

On to `O=S(=O)(Nc1ccccc1Cl)c1ccc2[nH]c(-c3cccnc3)nc2c1` [Example 5, N-(2-chlorophenyl)-2-(pyridin-3-yl)-1H-benzo[d]imidazole-5-sulfonamide], for which the Emax was 84% and the EC50 was 5.25 µM.

With `O=S(=O)(Nc1ccccc1Cl)c1ccc2[nH]c(-c3ccsc3)nc2c1` [Example 6, N-(2-Chlorophenyl)-2-(thiophen-3-yl)-1H-benzo[d]imidazole-5-sulfonamide], the Emax amounted to 111% and the EC50 was 0.361 µM.

With `O=S(=O)(Nc1ccccc1Cl)c1ccc2[nH]c(-c3cnccn3)nc2c1` [Example 7, N-(2-Chlorophenyl)-2-(pyrazin-2-yl)-1H-benzo[d]imidazole-5-sulfonamide], the Emax is 149% and the EC50 is 1.49 µM.

In the case of `O=S(=O)(Nc1ccccc1Cl)c1ccc2[nH]c(-c3cccnn3)nc2c1` [Example 8, N-(2-chlorophenyl)-2-(pyridazin-3-yl)-1H-benzo[d]imidazole-5-sulfonamide TFA salt], the Emax was 204% and the EC50 was 5.67 µM.

With `O=S(=O)(Nc1ccccc1Cl)c1ccc2[nH]c(-c3cccs3)nc2c1` [Example 9, N-(2-Chlorophenyl)-2-(thiophen-2-yl)-1H-benzo[d]imidazole-5-sulfonamide TFA salt], the Emax turned out to be 103% and the EC50 is 0.318 µM.

As for `O=S(=O)(Nc1ccccc1Cl)c1ccc2[nH]c(-c3cscn3)nc2c1` [Example 10, N-(2-Chlorophenyl)-2-(thiazol-4-yl)-1H-benzo[d]imidazole-5-sulfonamide bis TFA salt], the Emax was 169% and the EC50 came to 0.31 µM.

Regarding `O=S(=O)(Nc1ccccc1Cl)c1ccc2[nH]c(-c3ccncn3)nc2c1` [Example 11, N-(2-Chlorophenyl)-2-(pyrimidin-4-yl)-1H-benzo[d]imidazole-5-sulfonamide], the Emax was found to be 148% and the EC50 amounted to 2.83 µM.

Regarding `O=S(=O)(Nc1ccccc1Cl)c1ccc2[nH]c(-c3cccc(Cl)n3)nc2c1` [Example 12, N-(2-Chlorophenyl)-2-(6-chloropyridin-2-yl)-1H-benzo[d]imidazole-5-sulfonamide], the Emax was 98% and the EC50 worked out at 0.116 µM.

As to `O=S(=O)(Nc1ccccc1Cl)c1ccc2[nH]c(-c3cccc(F)n3)nc2c1` [Example 13, N-(2-Chlorophenyl)-2-(6-fluoropyridin-2-yl)-1H-benzo[d]imidazole-5-sulfonamide], the Emax was determined as 145% and the EC50 came to 0.111 µM.

With `O=S(=O)(Nc1ccccc1Cl)c1ccc2[nH]c(-c3nccs3)nc2c1` [Example 14, N-(2-Chlorophenyl)-2-(thiazol-2-yl)-1H-benzo[d]imidazole-5-sulfonamide], the Emax is 194% and the EC50 is 0.77 µM.
